Measured values from the NIST ThermoML archive (doi:10.1016/j.tca.2013.05.017).
± gives the expanded uncertainty stated by the source.

Test: molar heat capacity at constant pressure
Settings: 101.33 kPa, Crystal 2, Small (less than 1 g) adiabatic calorimetry

## O=S(=O)([O-])[O-].[Sr+2] [sulfuric acid, strontium salt (1:1)]
5 K
  molar heat capacity at constant pressure: 0.03816 ± 0.021 J/K/mol
5.083 K
  molar heat capacity at constant pressure: 0.04505 ± 0.021 J/K/mol
5.422 K
  molar heat capacity at constant pressure: 0.04233 ± 0.021 J/K/mol
5.622 K
  molar heat capacity at constant pressure: 0.05543 ± 0.021 J/K/mol
5.831 K
  molar heat capacity at constant pressure: 0.05464 ± 0.021 J/K/mol
6.044 K
  molar heat capacity at constant pressure: 0.06693 ± 0.021 J/K/mol
6.285 K
  molar heat capacity at constant pressure: 0.07062 ± 0.021 J/K/mol
6.354 K
  molar heat capacity at constant pressure: 0.08024 ± 0.021 J/K/mol
6.677 K
  molar heat capacity at constant pressure: 0.09728 ± 0.022 J/K/mol
6.759 K
  molar heat capacity at constant pressure: 0.1018 ± 0.022 J/K/mol
7.066 K
  molar heat capacity at constant pressure: 0.1205 ± 0.022 J/K/mol
7.169 K
  molar heat capacity at constant pressure: 0.1252 ± 0.022 J/K/mol
7.482 K
  molar heat capacity at constant pressure: 0.1475 ± 0.023 J/K/mol
7.591 K
  molar heat capacity at constant pressure: 0.1545 ± 0.023 J/K/mol
7.904 K
  molar heat capacity at constant pressure: 0.1777 ± 0.023 J/K/mol
8.021 K
  molar heat capacity at constant pressure: 0.1873 ± 0.023 J/K/mol
8.33 K
  molar heat capacity at constant pressure: 0.2151 ± 0.024 J/K/mol
8.448 K
  molar heat capacity at constant pressure: 0.2273 ± 0.024 J/K/mol
8.763 K
  molar heat capacity at constant pressure: 0.2543 ± 0.024 J/K/mol
8.881 K
  molar heat capacity at constant pressure: 0.2707 ± 0.025 J/K/mol
9.197 K
  molar heat capacity at constant pressure: 0.3046 ± 0.025 J/K/mol
9.317 K
  molar heat capacity at constant pressure: 0.3217 ± 0.025 J/K/mol
9.635 K
  molar heat capacity at constant pressure: 0.3631 ± 0.026 J/K/mol
9.755 K
  molar heat capacity at constant pressure: 0.3798 ± 0.026 J/K/mol
10 K
  molar heat capacity at constant pressure: 0.4163 ± 0.027 J/K/mol
10.08 K
  molar heat capacity at constant pressure: 0.427 ± 0.027 J/K/mol
10.2 K
  molar heat capacity at constant pressure: 0.4451 ± 0.027 J/K/mol
10.75 K
  molar heat capacity at constant pressure: 0.543 ± 0.029 J/K/mol
10.86 K
  molar heat capacity at constant pressure: 0.5647 ± 0.029 J/K/mol
11.64 K
  molar heat capacity at constant pressure: 0.7154 ± 0.031 J/K/mol
11.75 K
  molar heat capacity at constant pressure: 0.7406 ± 0.032 J/K/mol
12.54 K
  molar heat capacity at constant pressure: 0.9194 ± 0.034 J/K/mol
12.65 K
  molar heat capacity at constant pressure: 0.9503 ± 0.035 J/K/mol
13.45 K
  molar heat capacity at constant pressure: 1.16 ± 0.037 J/K/mol
13.55 K
  molar heat capacity at constant pressure: 1.197 ± 0.038 J/K/mol
14.36 K
  molar heat capacity at constant pressure: 1.446 ± 0.041 J/K/mol
14.47 K
  molar heat capacity at constant pressure: 1.484 ± 0.042 J/K/mol
15 K
  molar heat capacity at constant pressure: 1.665 ± 0.044 J/K/mol
15.29 K
  molar heat capacity at constant pressure: 1.771 ± 0.045 J/K/mol
15.39 K
  molar heat capacity at constant pressure: 1.813 ± 0.046 J/K/mol
16.22 K
  molar heat capacity at constant pressure: 2.105 ± 0.049 J/K/mol
16.32 K
  molar heat capacity at constant pressure: 2.148 ± 0.05 J/K/mol
17.16 K
  molar heat capacity at constant pressure: 2.488 ± 0.053 J/K/mol
17.26 K
  molar heat capacity at constant pressure: 2.531 ± 0.054 J/K/mol
18.1 K
  molar heat capacity at constant pressure: 2.928 ± 0.058 J/K/mol
18.2 K
  molar heat capacity at constant pressure: 2.96 ± 0.058 J/K/mol
19.05 K
  molar heat capacity at constant pressure: 3.383 ± 0.063 J/K/mol
19.14 K
  molar heat capacity at constant pressure: 3.432 ± 0.063 J/K/mol
20 K
  molar heat capacity at constant pressure: 3.864 ± 0.067 J/K/mol
20.01 K
  molar heat capacity at constant pressure: 3.84 ± 0.067 J/K/mol
20.1 K
  molar heat capacity at constant pressure: 3.907 ± 0.068 J/K/mol
21.44 K
  molar heat capacity at constant pressure: 4.638 ± 0.074 J/K/mol
21.53 K
  molar heat capacity at constant pressure: 4.687 ± 0.074 J/K/mol
23.36 K
  molar heat capacity at constant pressure: 5.734 ± 0.082 J/K/mol
23.44 K
  molar heat capacity at constant pressure: 5.783 ± 0.082 J/K/mol
25 K
  molar heat capacity at constant pressure: 6.782 ± 0.089 J/K/mol
25.3 K
  molar heat capacity at constant pressure: 6.945 ± 0.09 J/K/mol
25.37 K
  molar heat capacity at constant pressure: 6.99 ± 0.09 J/K/mol
27.25 K
  molar heat capacity at constant pressure: 8.25 ± 0.096 J/K/mol
27.32 K
  molar heat capacity at constant pressure: 8.313 ± 0.096 J/K/mol
29.2 K
  molar heat capacity at constant pressure: 9.624 ± 0.1 J/K/mol
30 K
  molar heat capacity at constant pressure: 10.21 ± 0.15 J/K/mol
30.75 K
  molar heat capacity at constant pressure: 10.74 ± 0.15 J/K/mol
31.17 K
  molar heat capacity at constant pressure: 11.03 ± 0.16 J/K/mol
32.62 K
  molar heat capacity at constant pressure: 12.1 ± 0.16 J/K/mol
33.14 K
  molar heat capacity at constant pressure: 12.44 ± 0.16 J/K/mol
34.6 K
  molar heat capacity at constant pressure: 13.58 ± 0.17 J/K/mol
34.76 K
  molar heat capacity at constant pressure: 13.71 ± 0.17 J/K/mol
35 K
  molar heat capacity at constant pressure: 13.95 ± 0.17 J/K/mol
35.1 K
  molar heat capacity at constant pressure: 13.99 ± 0.17 J/K/mol
36.58 K
  molar heat capacity at constant pressure: 15.12 ± 0.18 J/K/mol
36.73 K
  molar heat capacity at constant pressure: 15.23 ± 0.18 J/K/mol
37.07 K
  molar heat capacity at constant pressure: 15.51 ± 0.18 J/K/mol
38.55 K
  molar heat capacity at constant pressure: 16.71 ± 0.18 J/K/mol
38.7 K
  molar heat capacity at constant pressure: 16.81 ± 0.18 J/K/mol
40 K
  molar heat capacity at constant pressure: 17.87 ± 0.19 J/K/mol
40.53 K
  molar heat capacity at constant pressure: 18.29 ± 0.19 J/K/mol
40.68 K
  molar heat capacity at constant pressure: 18.39 ± 0.19 J/K/mol
42.52 K
  molar heat capacity at constant pressure: 19.85 ± 0.2 J/K/mol
42.65 K
  molar heat capacity at constant pressure: 19.96 ± 0.2 J/K/mol
44.51 K
  molar heat capacity at constant pressure: 21.4 ± 0.21 J/K/mol
44.63 K
  molar heat capacity at constant pressure: 21.49 ± 0.21 J/K/mol
45 K
  molar heat capacity at constant pressure: 21.83 ± 0.21 J/K/mol
46.49 K
  molar heat capacity at constant pressure: 22.95 ± 0.21 J/K/mol
46.61 K
  molar heat capacity at constant pressure: 23 ± 0.21 J/K/mol
48.48 K
  molar heat capacity at constant pressure: 24.46 ± 0.22 J/K/mol
48.59 K
  molar heat capacity at constant pressure: 24.49 ± 0.22 J/K/mol
50 K
  molar heat capacity at constant pressure: 25.73 ± 0.23 J/K/mol
50.48 K
  molar heat capacity at constant pressure: 26 ± 0.23 J/K/mol
50.57 K
  molar heat capacity at constant pressure: 26.02 ± 0.23 J/K/mol
52.46 K
  molar heat capacity at constant pressure: 27.61 ± 0.24 J/K/mol
52.55 K
  molar heat capacity at constant pressure: 27.61 ± 0.24 J/K/mol
54.45 K
  molar heat capacity at constant pressure: 29.14 ± 0.25 J/K/mol
54.52 K
  molar heat capacity at constant pressure: 29.14 ± 0.25 J/K/mol
55 K
  molar heat capacity at constant pressure: 29.5 ± 0.25 J/K/mol
56.45 K
  molar heat capacity at constant pressure: 30.48 ± 0.25 J/K/mol
